Where “and” joins values, the source holds several entries; their conditions need not be identical. Equal entries are not always repeated. Where two headings read alike, the source gives them in different places.
Experiments:
[1] = test system: Phytophthora infestans; settings: in vivo
[2] = test system: Phytophthora infestans; settings: in vivo; remark: listed apart in the source
[3] = test system: Plasmopara viticola; settings: in vivo
[4] = test system: Plasmopara viticola; assay: Field trial, grape downy mildew fruit rot, Michigan, U.S.A. (natural infection); format: in vivo; settings: 12 days after last treatment, 100 g/ha of each compound, grapes; for % Control, Incidence (Observed): downy mildew fruit rot incidence; for % Control, Severity (Observed): downy mildew fruit rot severity (diseased fruit surface area)
Method: (§1) The results provided by the mixtures were compared with the predicted results that were calculated using the formula set forth by S.R. Colby in Weeds 1967, 15, 20-22 ("Colby's Formula") from the results obtained using each of the compounds individually. The predicted results are also provided in the following Examples.
The trial was conducted in the State of Michigan, U.S.A. Plots consisted of 4 grape vines, cultivar Chancellor. Four such plots arranged in randomized blocks were used for each treatment
Fungicide treatments were applied at day 0, and at 13, 28, 43, 55, 71, and 84 days thereafter. N-[3(1'-chloro-3'-methyl-2'-oxopentan]-3,5-dichloro-4-methylbenzamide was applied as a flowable formulation (23% active ingredient) at 100 grams of active ingredient per hectare, and 2-cyano-N-((ethylamino)carbonyl)-2-(methoxyimino)acetamide was applied as a wettable powder formulation (CURZATE™, 50WP, DuPont, Wilmington, DE) at 100 grams of active ingredient per hectare. The two compounds were also applied as an aqueous tank mix of the two compounds at a dosage of 100 grams of active ingredient per hectare of each compound.
Evaluation of disease in response to natural infection was made 12 days after the last treatment The incidence and severity of downy mildew fruit rot was determined for twenty clusters of fruit selected randomly from the middle two vines of each plot Incidence refers to whether or not the cluster was diseased, and severity is the percentage of diseased fruit surface area. The compounds applied (Compound), and the incidence and severity results, expressed as percent disease control in comparison with untreated plots (% Control, Incidence (Observed) and % Control, Severity (Observed), respectively) are set forth below in TABLE 4 for treatment with N-[3'(1'-chloro-3'-methyl-2'-oxopentan]-3,5-dichloro-4-methylbenzamide, treatment with 2-cyano-N-((ethylamino)carbonyl)-2-(methoxyimino)acetamide and treatment with a mixture of the two compounds. The results obtained using the mixture of the two compounds were compared with predicted results that were calculated using Colby's formula from the results obtained using each of the compounds individually. The predicted results for incidence and severity are set forth below in TABLE 4 as "% Control, Incidence (Predicted)" and "% Control, Severity (Predicted)", respectively.

[5] = test system: Phytophthora infestans; format: in vivo; settings: 6 days after inoculation, tomatoes
[6] = test system: Plasmopara viticola; assay: Field trial, grape vines, Campinas, Brazil (heavy natural infection); format: in vivo; settings: grapes
Method: as §1
A field trial was conducted in Campinas, Brazil. Plots each consisted of 4 grape vines, cultivar Maria.
Fungicide treatments were applied at 7-day intervals with a total of 5 applications. N-[3'(1'-chloro-3'-methyl-2'-oxopentan]-3,5-dichloro-4-methylbenzamide was applied as a flowable formulation (23% active ingredient) , 2-cyano-N-((ethylamino)carbonyl)-2-(methoxyimino)acetamide as a wettable powder formulation (CURZATE™, 50WP, DuPont, Wilmington, DE). The two compounds were each applied individually in the manner disclosed above and in combination as an aqueous tank mix of the two compounds.
Evaluation of disease in response to a heavy natural infection was made 6 days after the third application, and 7 days after the fifth application. The Compounds applied and dosage rates, expressed as grams of active ingredient per hectare (Compound Dosage Rate (g/ha)) and the results, expressed as percent disease control in comparison with untreated plots (% Control(Observed)) are set forth below in TABLE 6 for treatment with N-[3'(1'-chloro-3'-methyl-2'-oxopentan]-3,5-dichloro4-methylbenzamide, treatment with 2-cyano-N-((ethylamino)carbonyl)-2-(methoxyimino)acetamide and treatment with mixtures of the two compounds. The results obtained using the mixtures of the two compounds were compared with those predicted by Colby's formula from the results provided by each of the two compounds used individually. The predicted results are set forth below in TABLE 6 as "% Control (Predicted)".

Row | Molecule | % Control by Evaluation Interval 5 weeks [1] | % Control by Evaluation Interval 6 weeks [1] | % Control by Evaluation Interval 7 weeks [1] | % Control (Observed) [2] [%] | % Control (Observed) [3] [%] | % Control, Incidence (Observed) [4] [%] | % Control, Severity (Observed) [4] [%] | % Control (Observed) ([5]; single compound 0.4 ppm) [%] | % Control (Observed) ([5]; single compound 0.8 ppm) [%] | also measured
1 | CCC(C)(NC(=O)c1cc(Cl)c(C)c(Cl)c1)C(=O)CCl (stereo not drawn) [Compound A] | 99% and 98% | 97% and 81% | 88% and 56% | 23 | 87 | 43.7 | 75.3 | 0 | 20 | % Control by Evaluation Interval 9 weeks [1]: 16% and 11%; % Control by Evaluation Interval 10 weeks [1]: 11% and 6%; % Control by Evaluation Interval 11 weeks [1]: 1% and 0%; % Control (Observed) ([6]; Seven days after the fifth treatment, A 100 g/ha alone): 21.4%; % Control (Observed) ([6]; Seven days after the fifth treatment, A 200 g/ha alone): 26.1%; % Control (Observed) ([6]; Six days after the third treatment, A 100 g/ha alone): 24.3%; % Control (Observed) ([6]; Six days after the third treatment, A 200 g/ha alone): 21.8%
2 | CCNC(=O)NC(=O)C(C#N)=NOC [Compound C, 2-cyano-N-((ethylamino)carbonyl)-2-(methoxyimino)acetamide] | – | – | – | – | – | 2.5 | 34.6 | – | – | % Control (Observed) ([6]; Seven days after the fifth treatment, C 25 g/ha alone): 66.7%; % Control (Observed) ([6]; Seven days after the fifth treatment, C 50 g/ha alone): 59.6%; % Control (Observed) ([6]; Seven days after the fifth treatment, C 100 g/ha alone): 64.3%; % Control (Observed) ([6]; Six days after the third treatment, C 25 g/ha alone): 71.3%; % Control (Observed) ([6]; Six days after the third treatment, C 50 g/ha alone): 64.8%; % Control (Observed) ([6]; Six days after the third treatment, C 100 g/ha alone): 74.1%
3 | COc1ccc(C(=CC(=O)N2CCOCC2)c2ccc(Cl)cc2)cc1OC [Compound D, (E,Z) 4-(3-(4-chlorophenyl)-3-(3,4-dimethoxyphenyl)acryloyl) morpholine] | – | – | – | – | – | – | – | 0 | 10 | % Control (Observed) ([5]; single compound 1.5 ppm): 35%
4 | manganese-zinc ethylenebis(dithiocarbamate) [reference compound] | 99% and 98% | 98% and 88% | 95% and 80% | 69 | 61 | – | – | – | – | % Control by Evaluation Interval 8 weeks [1]: 87% and 62%

— patent publication EP0753258B1 (priority 1995, dated 1997)
